{
  "source": "patent US20240166589A1",
  "about": "“METHOD FOR PRODUCING FORM-II TYPE REDUCED COENZYME Q10 CRYSTAL OR CRYSTALLINE SOLID OF SAME, AND CRYSTALLIZING APPARATUS” (KANEKA CORPORATION, priority 2021, published 2024)",
  "key": {"[1]": {"assay": "Oxidation stability (relative percentage of QH) after open storage in a constant temperature bath, HPLC", "format": "physicochemical", "conditions": "open system, 1 month, relative to initial reduced coenzyme Q10 content as 100; for Relative percentage of QH (25° C., 1M): 25° C. and RH 60%; for Relative percentage of QH (40° C., 1M): 40° C. and RH 75%", "experimental": "The oxidation stability of the reduced coenzyme Q10 crystals obtained in Examples was evaluated by the following method.\nThe reduced coenzyme Q10 crystals obtained in Examples were stored in an open system for one month in a constant temperature bath set at 40° C. and RH (relative humidity) of 75% and at 25° C. and RH of 60% and then subjected to high-performance liquid chromatography to calculate the content ratio of reduced coenzyme Q10 (QH) and oxidized coenzyme Q10.\nThe oxidation stability of reduced coenzyme Q10 crystal was calculated as a relative percentage of QH by the following formula based on the relative value with the content of reduced coenzyme Q10 for the initial reduced coenzyme Q10 crystal before storage in a constant temperature bath, i.e., the content of reduced coenzyme Q10 when measured using the crystals obtained in Examples immediately after obtaining the crystals, as 100.\nRelative percentage of QH (%)=Content of reduced coenzyme Q10 after storage/Content of initial reduced coenzyme Q10×100\nConditions for the high performance liquid chromatography, by which the reduced coenzyme Q10 concentration and the oxidized coenzyme Q10 concentration were measured, are shown below.\n• Column: SYMMETRY C18 (manufactured by Waters); 250 mm (length), 4.6 mm (inner diameter) • Mobile phase: C2H5OH:CH3OH=4:3 (v:v) • Detection wavelength: 210 nm • Flow rate: 1 ml/min"}, "[2]": {"conditions": "reported in Patent Literature 4; cited from earlier work"}, "[3]": {"assay": "Saturation concentration in an alcohol", "format": "physicochemical"}},
  "data": [
    {"smiles": "COc1c(O)c(C)c(C/C=C(\\C)CC/C=C(\\C)CC/C=C(\\C)CC/C=C(\\C)CC/C=C(\\C)CC/C=C(\\C)CC/C=C(\\C)CC/C=C(\\C)CC/C=C(\\C)CCC=C(C)C)c(O)c1OC", "note": "[Example 3, reduced coenzyme Q10]", "values": [
      {"measurement": "Relative percentage of QH (25° C., 1M)", "setting": "[1]", "value": 89.4, "unit": "%"},
      {"measurement": "Relative percentage of QH (40° C., 1M)", "setting": "[1]", "value": 87.3, "unit": "%"}
    ]},
    {"smiles": "COc1c(O)c(C)c(C/C=C(\\C)CC/C=C(\\C)CC/C=C(\\C)CC/C=C(\\C)CC/C=C(\\C)CC/C=C(\\C)CC/C=C(\\C)CC/C=C(\\C)CC/C=C(\\C)CCC=C(C)C)c(O)c1OC", "note": "[Example 4, reduced coenzyme Q10]", "values": [
      {"measurement": "Relative percentage of QH (25° C., 1M)", "setting": "[1]", "value": 92.2, "unit": "%"},
      {"measurement": "Relative percentage of QH (40° C., 1M)", "setting": "[1]", "value": 90.1, "unit": "%"}
    ]},
    {"smiles": "COc1c(O)c(C)c(C/C=C(\\C)CC/C=C(\\C)CC/C=C(\\C)CC/C=C(\\C)CC/C=C(\\C)CC/C=C(\\C)CC/C=C(\\C)CC/C=C(\\C)CC/C=C(\\C)CCC=C(C)C)c(O)c1OC", "note": "[reduced coenzyme Q10 Form II crystal, reduced coenzyme Q10]", "values": [
      {"measurement": "stability compared with reduced coenzyme Q10 Form I crystal", "setting": "[2]", "value": "much more stable"},
      {"measurement": "saturation concentration compared with Form I crystal", "setting": "[3]", "value": "lower than the saturation concentration of a Form I crystal"}
    ]},
    {"smiles": "COc1c(O)c(C)c(C/C=C(\\C)CC/C=C(\\C)CC/C=C(\\C)CC/C=C(\\C)CC/C=C(\\C)CC/C=C(\\C)CC/C=C(\\C)CC/C=C(\\C)CC/C=C(\\C)CCC=C(C)C)c(O)c1OC", "note": "[Example 2, reduced coenzyme Q10]", "values": [
      {"measurement": "Relative percentage of QH (25° C., 1M)", "setting": "[1]", "value": 85.1, "unit": "%"},
      {"measurement": "Relative percentage of QH (40° C., 1M)", "setting": "[1]", "value": 81.4, "unit": "%"}
    ]},
    {"smiles": "COc1c(O)c(C)c(C/C=C(\\C)CC/C=C(\\C)CC/C=C(\\C)CC/C=C(\\C)CC/C=C(\\C)CC/C=C(\\C)CC/C=C(\\C)CC/C=C(\\C)CC/C=C(\\C)CCC=C(C)C)c(O)c1OC", "note": "[Example 1, reduced coenzyme Q10]", "values": [
      {"measurement": "Relative percentage of QH (25° C., 1M)", "setting": "[1]", "value": 91.8, "unit": "%"},
      {"measurement": "Relative percentage of QH (40° C., 1M)", "setting": "[1]", "value": 88.1, "unit": "%"}
    ]}
  ]
}
